Laboratory results as given in US4714619A, “Aminomalonyl alanine compounds as dietary sweeteners” (priority 1986, dated 1987).
Counter-ions that a name gives are not always drawn. Like-named read-outs stand apart in the source and are kept apart here.

Assay: Comparative taste test, D- versus L-configuration (Table 2, FIG. 3)
Set-up: Sweet? (average score) / Bitter? (average score) / Salty? (average score) / Off Taste? (average score) / After Taste? (average score): scale not given here
Procedure: The compounds were dissolved in distilled water at the concentrations specified in Table 2. Solutions were made up and kept overnight in a refrigerator. The following day, they were poured into individual graduated plastic cups (10 ml per cup) and allowed to warm to room temperature. A taste panel was convened and testing begun that same day. Tasting and evaluation was done by the standard protocol developed by Dr. Robert Gesteland of Taste and Smell Consulting Group, Inc.
The first solution tasted (reference standard for the panel) was 0.25M sucrose. Other solutions were tasted in radomized fashion. The random order was arrived at as follows:
i. An ordered list of the compounds and concentrations was prepared (26 solutions in all).
ii. 0.25M sucrose was designated as 1.
iii. A standard table of random numbers was used in which the numbers were grouped as two-digit numbers. A point in the table was chosen at random (blind pointing). The first solution in the list was given the first random number in the sequence (read right-to-left, up-to-down) which is between 2 and 26. The second solution in the list was given the next random number in the sequence between 2 and 26, etc. Repeat numbers were ignored.
iv. Solutions were then labeled A (for number 1) B (for random number 2), C-Z.
v. Panelists were instructed to taste the solutions in alphabetical order.
With the assistance of Taste and Smell Consulting Group, Inc., taste panel members were trained adn tested for their ability to discriminate sucrose solutions of varying concentrations. In summary it may be stated that all 9 panel members had acceptble correlation scores. Their results were in good agreement with those which have been previously reported in siilar types of studies. For the test series the correlations for each panelist for sucrose and aspartame were acceptable as were the overall results obtained by averaging individual scores. The results of the taste panel are set forth in Table 2 wherein the parenthetical figures represent the standard error values for the number above.

Q: With `C[C@@H](NC(=O)C(N)C(=O)O)C(=O)OC12CC3CC(CC(C3)C1)C2` (mixture of isomers) [(22), DL-Aminomalonyl-D-alanine 1-Adamantyl Ester Citrate] as the compound, how does the “sweet taste (words)” value read?
A: sweet

Q: With `CC(NC(=O)C(N)C(=O)O)C(=O)OC1CCCCC1C` (mixture of isomers) [(23), DL-Aminomalonyl-D-alanine trans-2-Methylcyclohexyl Ester Citrate] as the compound, how does the “sweet taste (words)” value read?
A: sweet

Q: For `CC(C)OC(=O)[C@H](C)NC(=O)C(N)C(=O)O` (mixture of isomers) [Compound (20), DL-Aminomalonyl-L-alanine Isopropyl Ester], which “sweet taste (words)” value is on record?
A: not sweet

Q: What about the “After Taste? (average score)” value (0.0431 Millimolar) of the same compound?
A: 0

Q: And the “Bitter? (average score)” value (0.0431 Millimolar)?
A: 9

Q: What about the “Off Taste? (average score)” value (0.0431 Millimolar) of the same compound?
A: 5

Q: And the “Pleasant? (average score)” value (0.0431 Millimolar)?
A: 14

Q: What about the “Salty? (average score)” value (0.0431 Millimolar) of the same compound?
A: 3

Q: What about the “Sweet? (average score)” value (0.0431 Millimolar) of the same compound?
A: 3

Q: What about the “After Taste? (average score)” value (0.4307 Millimolar) of the same compound?
A: 8

Q: And the “Bitter? (average score)” value (0.4307 Millimolar)?
A: 14

Q: What about the “Off Taste? (average score)” value (0.4307 Millimolar) of the same compound?
A: 8

Q: What about the “Pleasant? (average score)” value (0.4307 Millimolar) of the same compound?
A: 5

Q: What about the “Salty? (average score)” value (0.4307 Millimolar) of the same compound?
A: 16

Q: And the “Sweet? (average score)” value (0.4307 Millimolar)?
A: 8

Q: What about the “After Taste? (average score)” value (4.3066 Millimolar) of the same compound?
A: 5

Q: And the “Bitter? (average score)” value (4.3066 Millimolar)?
A: 0

Q: And the “Off Taste? (average score)” value (4.3066 Millimolar)?
A: 5

Q: And the “Pleasant? (average score)” value (4.3066 Millimolar)?
A: 19

Q: And the “Salty? (average score)” value (4.3066 Millimolar)?
A: 0

Q: What about the “Sweet? (average score)” value (4.3066 Millimolar) of the same compound?
A: 5

Q: And the “sweet taste (words)” value (listed as 20)?
A: non-sweet

Q: Which results are given for `C[C@@H](NC(=O)C(N)C(=O)O)C(=O)OC1C2(C)CCC(C2)C1(C)C` (mixture of isomers) [Compound (21), DL-Aminomalonyl-D-alanine Fenchyl Ester]?
A: sweet taste (words): sweet; After Taste? (average score) (0.0306 Millimolar): 12; Bitter? (average score) (0.0306 Millimolar): 3; Off Taste? (average score) (0.0306 Millimolar): 13; Pleasant? (average score) (0.0306 Millimolar): -9; Salty? (average score) (0.0306 Millimolar): 4; Sweet? (average score) (0.0306 Millimolar): 1; After Taste? (average score) (0.3064 Millimolar): 50; Bitter? (average score) (0.3064 Millimolar): 29; Off Taste? (average score) (0.3064 Millimolar): 56; Pleasant? (average score) (0.3064 Millimolar): -57; Salty? (average score) (0.3064 Millimolar): 9; Sweet? (average score) (0.3064 Millimolar): 8; After Taste? (average score) (3.0637 Millimolar): 79; Bitter? (average score) (3.0637 Millimolar): 90; Off Taste? (average score) (3.0637 Millimolar): 99; Pleasant? (average score) (3.0637 Millimolar): -83; Salty? (average score) (3.0637 Millimolar): 62; Sweet? (average score) (3.0637 Millimolar): 13
